# Laboratory results: patent publication US11180504B2 (ORCHID PHARMA LTD., priority 2016, dated 2021)
# Where two headings read alike, the source gives them in different places.
# Assays:
# [1] = tested on: carbapenem sensitive Escherichia coli; experiment: MIC by broth micro-dilution (CLSI), carbapenem sensitive E. coli; type: cell-based
# [2] = tested on: carbapenem sensitive Pseudomonas aeruginosa; experiment: MIC by broth micro-dilution (CLSI), carbapenem sensitive P. aeruginosa; type: cell-based
# [3] = tested on: methicillin-sensitive Staphylococcus aureus; experiment: MIC by broth micro-dilution (CLSI), methicillin-sensitive S. aureus; type: cell-based; conditions: MSSA S. aureus ATCC29213
# [4] = tested on: carbapenemase producing K. pneumoniae; experiment: MIC by broth micro-dilution (CLSI), carbapenemase producing K. pneumoniae; type: cell-based, Klebsiella pneumoniae
# [5] = Escherichia coli, ATCC25922, ESBL −ve E. coli ATCC25922, read-out: MIC
# [6] = Pseudomonas aeruginosa, ATCC27853, Meropenem susceptible P. aeruginosa ATCC27853, read-out: MIC
# [7] = Staphylococcus aureus, ATCC 29213 / MSSA, read-out: MIC
# [8] = Klebsiella pneumoniae, ATCCBAA1705, KPC-2 K. pneumoniae ATCC BAA-1705, read-out: MIC
# [9] = Meropenem susceptible P. aeruginosa ATCC27853
# [10] = KPC-2 K. pneumoniae ATCC BAA-1705
SMILES,"MIC [1, 5]","MIC [2, 6]","MIC [3, 7]","MIC [4, 8]",MIC ([1]; ESBL −ve E. coli ATCC25922),"MIC [2, 9]",MIC [3],"MIC [4, 10]"
"C[C@@H](NC(=O)Cn1cnnn1)[C@H]1C(=O)N2C(C(=O)O)=C(S[C@@H]3CN[C@H](C(=O)N4CCC(N)C(F)C4)C3)[C@H](C)[C@H]12 (single isomer, unassigned) [Example 425]",0.25 µg/mL,2 µg/mL,4 µg/mL,2 µg/mL,–,–,–,–
"C[C@@H](NC(=O)Cn1cnnn1)[C@H]1C(=O)N2C(C(=O)O)=C(S[C@@H]3CN[C@H](C(=O)N4CCC5CNCCC54)C3)[C@H](C)[C@H]12 (single isomer, unassigned) [Example 438]",0.25 µg/mL,2 µg/mL,2 µg/mL,1 µg/mL,–,–,–,–
"C[C@@H](NC(=O)Cn1cnnn1)[C@H]1C(=O)N2C(C(=O)O)=C(S[C@@H]3CN[C@H](C(=O)N4CC5CCCNC5C4)C3)[C@H](C)[C@H]12 (single isomer, unassigned) [Example 452]",0.25 µg/mL,2 µg/mL,2 µg/mL,1 µg/mL,–,–,–,–
"C[C@@H](NC(=O)Cn1cnnn1)[C@H]1C(=O)N2C(C(=O)O)=C(S[C@@H]3CN[C@H](C(=O)N4CC5CCCNC5C4)C3)[C@H](C)[C@H]12 (single isomer, unassigned) [Example 459]",–,–,–,–,0.125 µg/mL,2 µg/mL,1 µg/mL,1 µg/mL
"C[C@@H](NC(=O)Cn1cnnn1)[C@H]1C(=O)N2C(C(=O)O)=C(S[C@@H]3CN[C@H](C(=O)N4CCC5CNCC54)C3)[C@H](C)[C@H]12 (single isomer, unassigned) [Example 466]",0.5 µg/mL,4 µg/mL,4 µg/mL,2 µg/mL,–,–,–,–
"C[C@@H](NC(=O)Cn1cnnn1)[C@H]1C(=O)N2C(C(=O)O)=C(S[C@@H]3CN[C@H](C(=O)N4CCC5CNCC54)C3)[C@H](C)[C@H]12 (single isomer, unassigned) [Example 467]",–,–,–,–,1 µg/mL,8 µg/mL,8 µg/mL,2 µg/mL
"C[C@@H](NC(=O)Cn1cnnn1)[C@H]1C(=O)N2C(C(=O)O)=C(S[C@@H]3CN[C@H](C(=O)N4CCC5NCCCC54)C3)[C@H](C)[C@H]12 (single isomer, unassigned) [Example 468]",0.5 µg/mL,8 µg/mL,4 µg/mL,2 µg/mL,–,–,–,–
"C[C@@H](NC(=O)Cn1cnnn1)[C@H]1C(=O)N2C(C(=O)O)=C(S[C@@H]3CN[C@H](C(=O)N4CCC5NCCCC54)C3)[C@H](C)[C@H]12 (single isomer, unassigned) [Example 469]",–,–,–,–,0.5 µg/mL,4 µg/mL,4 µg/mL,2 µg/mL
"C[C@@H](NC(=O)Cn1cnnn1)[C@H]1C(=O)N2C(C(=O)O)=C(S[C@@H]3CN[C@H](C(=O)N4CC(N)C(F)C4)C3)[C@H](C)[C@H]12 (single isomer, unassigned) [Example 478]",0.125 µg/mL,8 µg/mL,8 µg/mL,1 µg/mL,–,–,–,–
"C[C@@H](NC(=O)Cn1cnnn1)[C@H]1C(=O)N2C(C(=O)O)=C(S[C@@H]3CN[C@H](C(=O)N4CC(N)C(F)C4)C3)[C@H](C)[C@H]12 (single isomer, unassigned) [Example 479]",–,–,–,–,0.25 µg/mL,16 µg/mL,8 µg/mL,2 µg/mL
"C[C@@H](NC(=O)Cn1cnnn1)[C@H]1C(=O)N2C(C(=O)O)=C(S[C@@H]3CN[C@H](C(=O)N4CCC5NCCCC5C4)C3)[C@H](C)[C@H]12 (single isomer, unassigned) [Example 482]",0.25 µg/mL,4 µg/mL,4 µg/mL,4 µg/mL,–,–,–,–
"C[C@@H](NC(=O)Cn1cnnn1)[C@H]1C(=O)N2C(C(=O)O)=C(S[C@@H]3CN[C@H](C(=O)N4CCC5(CCNC5)C4)C3)[C@H](C)[C@H]12 (single isomer, unassigned) [Example 488]",0.25 µg/mL,–,4 µg/mL,1 µg/mL,–,2 µg/mL,–,–
"CNCC(=O)N[C@H](C)[C@H]1C(=O)N2C(C(=O)O)=C(S[C@@H]3CN[C@H](C(=O)N4CCC5CNCCC54)C3)[C@H](C)[C@H]12 (single isomer, unassigned) [Example 490]",2 µg/mL,32 µg/mL,32 µg/mL,2 µg/mL,–,–,–,–
"C[C@@H](NC(=O)Cn1cnnn1)[C@H]1C(=O)N2C(C(=O)O)=C(S[C@@H]3CN[C@H](C(=O)N4CCC5(CCNC5)C4)C3)[C@H](C)[C@H]12 (single isomer, unassigned) [Example 493]",–,–,–,–,0.125 µg/mL,0.5 µg/mL,2 µg/mL,1 µg/mL
"C[C@@H](NC(=O)Cn1cnnn1)[C@H]1C(=O)N2C(C(=O)O)=C(S[C@@H]3CN[C@H](C(=O)N4CCC(N)(CO)C4)C3)[C@H](C)[C@H]12 (single isomer, unassigned) [Example 496]",0.25 µg/mL,2 µg/mL,2 µg/mL,2 µg/mL,–,–,–,–
"C[C@@H](NC(=O)Cn1cnnn1)[C@H]1C(=O)N2C(C(=O)O)=C(S[C@@H]3CN[C@H](C(=O)N4CCC(N)(CO)C4)C3)[C@H](C)[C@H]12 (single isomer, unassigned) [Example 497]",–,–,–,–,0.25 µg/mL,4 µg/mL,4 µg/mL,2 µg/mL
"C[C@@H](NC(=O)Cn1cnnn1)[C@H]1C(=O)N2C(C(=O)O)=C(S[C@@H]3CN[C@H](C(=O)N4CCCC45CCCNC5)C3)[C@H](C)[C@H]12 (single isomer, unassigned) [Example 504]",–,–,–,–,0.5 µg/mL,32 µg/mL,2 µg/mL,4 µg/mL
"C[C@@H](NC(=O)Cn1cnnn1)[C@H]1C(=O)N2C(C(=O)O)=C(S[C@@H]3CN[C@H](C(=O)N4CC(O)C(CN)C4)C3)[C@H](C)[C@H]12 (single isomer, unassigned) [Example 510]",0.25 µg/mL,1 µg/mL,4 µg/mL,4 µg/mL,–,–,–,–
"C[C@@H](NC(=O)Cn1cnnn1)[C@H]1C(=O)N2C(C(=O)O)=C(S[C@@H]3CN[C@H](C(=O)N4CC(O)C(CN)C4)C3)[C@H](C)[C@H]12 (single isomer, unassigned) [Example 511]",–,–,–,–,0.25 µg/mL,1 µg/mL,4 µg/mL,2 µg/mL
"C[C@@H](NC(=O)CN1CCC2CNCCC21)[C@H]1C(=O)N2C(C(=O)O)=C(S[C@@H]3CN[C@H](C(=O)N(C)C)C3)[C@H](C)[C@H]12 (single isomer, unassigned) [Example 519]",2 µg/mL,> 128 µg/mL,16 µg/mL,16 µg/mL,–,–,–,–
"C[C@@H](NC(=O)Cn1cnnn1)[C@H]1C(=O)N2C(C(=O)O)=C(S[C@@H]3CN[C@H](C(=O)N4CCC5CN(C[C@@H](O)CN)CCC54)C3)[C@H](C)[C@H]12 (single isomer, unassigned) [Example 521]",0.5 µg/mL,2 µg/mL,2 µg/mL,–,–,–,–,0.5 µg/mL
"C[C@@H](NC(=O)Cn1cnnn1)[C@H]1C(=O)N2C(C(=O)O)=C(S[C@@H]3CN[C@H](C(=O)N4CC5CC(CO)NC5C4)C3)[C@H](C)[C@H]12 (single isomer, unassigned) [Example 552]",–,–,–,–,0.25 µg/mL,–,4 µg/mL,2 µg/mL
"C[C@@H](NC(=O)Cn1cnnn1)[C@H]1C(=O)N2C(C(=O)O)=C(S[C@@H]3CN[C@H](C(=O)N4CCOC(CN)C4)C3)[C@H](C)[C@H]12 (stereo in doubt) [Example 461, (4R,5S,6R)-6-((R)-1-(2-(1H-tetrazol-1-yl)acetamido)ethyl)-3-((3S,5S)-5-((S)-2-(aminomethyl)morpholine-4-carbonyl)pyrrolidin-3-ylthio)-4-methyl-7-oxo-1-azabicyclo[3.2.0]hept-2-ene-2-carboxylic acid]",–,–,–,–,0.5 µg/mL,–,4 µg/mL,2 µg/mL
"C[C@@H](NS(C)(=O)=O)[C@H]1C(=O)N2C(C(=O)O)=C(S[C@@H]3CN[C@H](C(=O)N(C)C)C3)[C@H](C)[C@H]12 [Example 1, (4R,5S,6S)-3-((3S,5S)-5-(Dimethylcarbamoyl)pyrrolidin-3-ylthio)-4-methyl-6-((R)-1-(methylsulfonamido)ethyl)-7-oxo-1-azabicyclo[3.2.0]hept-2-ene-2-carboxylic acid]",0.25 to 1 µg/mL,32 to 64 µg/mL,8 to 16 µg/mL,–,–,–,–,–
